Earlier results in patent publication US20170165232A1, “THREE-PHASE CONTROLLED-RELEASE TABLET COMPRISING MELATONIN AND PROCESS OF PREPARATION” (Ambros Pharma S.R.L., priority 2010, published 2017).

Settings: in humans

- half-life: about 40 minutes
SMILES: COc1ccc2[nH]cc(CCNC(C)=O)c2c1 [melatonin, N-acetyl-5-methoxytryptamine]
